Data taken from patent publication US5242826A, “Polypeptides for adhering cells to a substrate” (Regents of the University of Minnesota, priority 1991, dated 1993).

Test: 3H-heparin binding to type IV collagen and to NCl domain
Experimental: It was then established that ^3 H-heparin binds both to intact, native type IV collagen and to the isolated NCl domain. FIGS. 10 and 11 show the binding of a constant amount of ^3 H-heparin (85,000 dpm) to increasing concentrations of type IV collagen and the NCl domain, respectively. […] Type IV collagen binds 5-6 times more ^3 H-heparin than does the NCl domain.
Next, the binding of increasing concentrations of ^3 H-heparin to a constant amount of type IV collagen (3 μg) and an equimolar amount of the NCl domain (1 μg) was tested. […] In this type of experiment, approximately 4 times more ^3 H-heparin bound to type IV collagen than to the NCl domain.

type IV collagen: basement membrane glycoprotein, MW about 500,000, two α1 chains and one α2 chain
binding of a constant amount of 3H-heparin to increasing concentrations of protein (3H-heparin 85,000 dpm, FIG. 10-11): saturable binding
3H-heparin bound by type IV collagen relative to NCl domain (constant 3H-heparin (85,000 dpm), increasing protein): 5-6 times
3H-heparin bound to type IV collagen relative to NCl domain (increasing 3H-heparin, constant protein (3 μg vs 1 μg)): approximately 4 times
binding of increasing concentrations of 3H-heparin to a constant amount of protein (type IV collagen 3 μg, NCl domain 1 μg (equimolar), FIG. 12-13): saturable binding
